Laboratory results taken from patent US11116721B2, “Pharmaceutical formulations comprising 4-{(1R)-2-[(6-{2-[(2,6-dichlorobenzyl)oxy]ethoxy}hexyl)amino]-1-hydroxyethyl}-2-(hydroxymethyl) phenol” (Glaxo Group Limited, priority 2009, dated 2021).

How the values were obtained:
asthmatic patients [1] = assay: Clinical pharmacology studies of Compound (I) in asthmatic patients (FEV1); type: in vivo, human; settings: all doses of Compound (I)
Description: (§1) Compound (I) as the α-phenylcinnamate salt and the triphenylacetate salt has been studied in a number of clinical pharmacology studies, including single- and repeat-dose studies. In addition, these studies have evaluated Compound (I) with the excipients cellobiose octaacetate and magnesium stearate.
In one study in asthmatic patients 100 mcg of Compound (I) triphenylacetate formulated with lactose and magnesium stearate has shown a favourable onset of action.

beta-2 adrenoreceptor = assay: Animal and human studies of Compound (I): bronchodilation and safety; type: in vivo
asthmatic patients [2] = assay: Clinical pharmacology studies of Compound (II) in asthmatic patients (FEV1); type: in vivo, human; settings: doses of from 100 to 400 mcg
Description: Compound (II) has been studied in a number of clinical pharmacology studies, including single- and repeat-dose studies and at a range of doses. In addition, these studies have evaluated Compound (II) with the excipients cellobiose octaacetate and magnesium stearate.

[3] = Studies of Compound (II) in animal models and humans; type: in vivo
COPD patients = assay: Clinical pharmacology studies of Compound (I) in COPD patients (FEV1); type: in vivo, human; settings: 100 mcg and 400 mcg, with lactose alone
Description: as §1
In COPD patients, treatment with 100 mcg and 400 mcg Compound (I) alpha-phenylcinnamate (with lactose alone) achieved a clinically relevant adjusted mean difference from placebo in weighted mean trough FEV1 (22 to 24 hrs) of >100 mL.

In the case of OCc1cc([C@@H](O)CNCCCCCCOCCOCc2c(Cl)cccc2Cl)ccc1O [Compound (I), 4-{(1R)-2-[(6-{2-[(2,6-dichlorobenzyl)oxy]ethoxy}hexyl)amino]-1-hydroxyethyl}-2-(hydroxymethyl)phenol], the “improvement in trough (24-hour) FEV1 compared to placebo” value (asthmatic patients [1]) is reported as “statistically and clinically significant improvement”, the bronchodilation (beta-2 adrenoreceptor) is reported as “sustained bronchodilation over a 24 hour period” and the safety profile (beta-2 adrenoreceptor) is reported as “favourable safety profile”.
For C[C@@H]1CC2C3C[C@H](F)C4=CC(=O)C=C[C@]4(C)[C@@]3(F)[C@@H](O)C[C@]2(C)[C@@]1(OC(=O)c1ccco1)C(=O)SCF (stereo partly drawn) [Compound (II), 6α, 9α-difluoro-17α-[(2-furanylcarbonyl)oxy]-11β-hydroxy-16α-methyl-3-oxo-androsta-1,4-diene-17β-carbothioic acid S-fluoromethyl ester], the “improvement in trough (24-hour) FEV1 compared to placebo” value (asthmatic patients [2]) was “statistically and clinically significant improvement” and the “duration of action (inhaled glucocorticosteroid)” value [3] was “long acting”.
With O=C(O)C(=Cc1ccccc1)c1ccccc1.OCc1cc([C@@H](O)CNCCCCCCOCCOCc2c(Cl)cccc2Cl)ccc1O [Compound (I) alpha-phenylcinnamate, 4-{(1R)-2-[(6-{2-[(2,6-dichlorobenzyl)oxy]ethoxy}hexyl)amino]-1-hydroxyethyl}-2-(hydroxymethyl)phenol α-phenylcinnamate] the “adjusted mean difference from placebo in weighted mean trough FEV1 (22 to 24 hrs)” value (COPD patients) was > 100 mL.
